Where two headings read alike, the source gives them in different places.
Legend:
UptA [1] = target: T1, UptA (Bacillus subtilis, UniProt O31823); assay: Native MS competition of C55-P and phospholipids for UptA binding; conditions: 4 µM UptA and 10 µM C55-P, increasing DOPG (up to 20 µM) or DOPE
Procedure: To investigate whether or not C55-P can outcompete phospholipids in binding to UptA, we incubated solutions containing UptA-DOPG with increasing concentrations of C55-P. Spectra were recorded after aliquots of the solution were equilibrated on ice for 15 min. […] We therefore hypothesised that phospholipids should be unable to outcompete C55-P bound to UptA. To test this hypothesis, we incubated UptA with C55-P and then equilibrated aliquots with an increasing concentration of DOPG. […]
The chloroform layer containing the total lipids was recovered into a clean glass vial, and the organic solvent was evaporated in a SpeedVac for 16 h. Lipid film was resuspended 200 mM ammonium acetate, 0.05% LDAO (pH 8.0) to ~0.5 mg/mL for the binding experiments.
Sample preparation for native MS
Before measurements, the protein was buffer-exchanged into 0.05% LDAO, 200 mM ammonium acetate (“MS buffer”) at the desired pH using a centrifugal buffer exchange device (Micro Bio -Spin 6, Bio-Rad). Stock solutions of lipids were prepared from chloroform/methanol solution by evaporating aliquots of known volume in a SpeedVac. After drying, the lipid films were weighed and resuspended to a final concentration of 0.5 mM in 200 mM ammonium acetate (pH8) and 0.05% LDAO by vertexing. Stock solutions of 0.5 mM amphomycin, aspartocin D, daptomycin and bacitracin, were made in the same buffer. All experiments were repeated three times from newly prepared stock solutions.
About 3 μL protein aliquot was transferred into a gold-coated borosilicate capillary (Harvard Apparatus) and was mounted on the nano ESI source of a Q-Exactive hybrid quadrupole-Orbitrap mass spectrometer (Thermo Fisher Scientific, Bremen, Germany). The instrument settings were 1.2 kV capillary voltage, S-lens RF 200%, argon UHV pressure 3.3 × 10−10 mbar, the capillary temperature was set to 200 °C, and resolution of the instrument was set to 17,500 at a transie nt time of 64 ms. […] The resulting fragments were detected in the Orbitrap (R = 280,000 @ m/z 200), averaging ~500 transients to maximise the signal-to-noise ratio. […]

UptA [2] = target: T1, UptA; assay: Native MS of phospholipid binding to UptA
From the text: Proteins belonging to the DedA family are a widespread family of transporters and are proposed to flip diverse lipids, including carrier lipids and membrane phospholipids. We therefore probed the interaction of UptA with membrane phospholipids to understand whether the latter could modulate its function. For this purpose, we selected anionic phosphatidylglycerols (PG) and zwitterionic phosphatidylethanolamines (PE), representing the major classes of phospholipid headgroups found in B. subtilis ([41], [42]). We recorded mass spectra of solutions containing 4 µM UptA incubated with 10 µM a15:0-i15:0 PE and 10 µM a15:0-i15:0 PG (a15:0, anteiso-pentadecanoic acid; i15:0, iso-pentadecanoic acid). The fatty acid composition of these lipids closely mimics those of native B. subtilis lipids (see below). The resulting spectra display peaks corresponding to UptA in apo and lipid-bound forms in both cases (Fig. 4 A and B). […] We therefore hypothesize that UptA interacts more favorably with PG than with PE.
To verify the lipid binding preference of UptA with more native-like lipids, we prepared lipid extracts from B. subtilis membranes (Materials and Methods). We then incubate an aliquot of the resulting crude lipids (SI Appendix, Fig. S8) with UptA. The spectra yielded peaks assigned to UptA in complex with cardiolipins (~1,326 Da) and a range of phospholipids, predominantly 694 Da, 721 Da, 748 Da, and 776 Da species (Fig. 4 D and E). To identify these lipids, we performed tandem MS/MS, isolating the lipid species and subjecting it to collisional activation. […] The fatty acid fragments are mixed populations, predominantly 15:0-15:0, 15:0-17:0, 16:0-16:0, and 16:0-18:1 (SI Appendix, Fig. S9) which are the typical fatty acids from B. subtilis membrane phospholipids ([42]). We therefore conclude that UptA interacts more favorably with the anionic cardiolipins and phosphatidylglycerols than with the zwitterionic phosphatidylethanolamines in the membrane lipid extracts.
(§1) Detailed experimental procedures are provided in SI Appendix. Briefly, UptA (wild type and mutants) was expressed in E. coli C43(DE3) cells (Lucigen) with GFP fusion on the C-terminus and solubilized from the membrane fraction by n-dodecyl-β-D-maltopyranoside (DDM). After purification by affinity chromatography, the GFP was cleaved by TEV protease and removed, and UptA was further purified by size-exclusion chromatography in a buffer containing 20 mM Tris-HCl (pH 8.0), 200 mM NaCl, 0.02% DDM. Before measurements, proteins were buffer-exchanged into 0.05% LDAO, 200 mM ammonium acetate at the desired pH using a centrifugal buffer exchange device (Micro Bio-Spin 6, Bio-Rad). Stock solutions of lipids were prepared from chloroform/methanol solution by evaporating aliquots of known volume in a SpeedVac. After drying, the lipid films were weighed and resuspended to a final concentration of 0.5 mM in 200 mM ammonium acetate and 0.05% LDAO by vertexing. Stock solutions of 0.5 mM amphomycin, aspartocin D, daptomycin, polymyxin B, polymyxin E, and bacitracin were made in the same buffer. All experiments were repeated three times from newly prepared stock solutions. Native mass spectrometry was performed on a Q-Exactive hybrid quadrupole-Orbitrap mass spectrometer (Thermo Fisher Scientific, Bremen, Germany), and lipid identification was performed on an Orbitrap Eclipse Tribrid mass spectrometer (Thermo). […]
Lipid extracts from B. Subtilis
B. subtilis strain 168 (ATCC 23857) was cultivated in […] LB media at 37 °C until OD600 nm 1.2 under aurobic conditions. Cells were harvested by centrifugation at 4,000 g for 20 minutes and resuspended in 20 mM Tris-HCl (pH 8.0), 150 mM NaCl. Cells were lysed by 5-6 passes through a microfluidizer at 20,000 psi. The lysates were clarified by centrifugation at 4,000 g for 10 minutes, and the totoal membrane was pelleted at 120,000 g for 1 h. The membrane pellet was ressupended […]

MurG = conditions: read-out: Kd, MurG/lipid I; cited from earlier work
Procedure: (§2) We explored the binding affinity of UptA toward C55-P by recording mass spectra for solutions containing 2.5 µM UptA and 0 to 40 µM C55-P in 200 mM ammonium acetate, 0.05% LDAO at pH 8.0. […] Further increase in the concentration of C55-P enhanced the intensity of the UptA:C55-P complex, together with the emergence of additional binding events (Fig. 2A). We deconvoluted the spectra ([34]) to extra ...

UptA [3] = target: T1, UptA; assay: Native MS of antibiotic binding to UptA; conditions: 2.5 µM UptA, 10 µM C55-P, antibiotic up to 100 µM (polymyxins 100 µM), 0.05% LDAO, 200 mM ammonium acetate, 75 V
Procedure: We next investigate how UptA and its complex with C55-P interact with a range of cell-wall targeting antibiotics including the lipopeptides daptomycin and amphomycin. […] We investigated whether daptomycin affects C55-P binding to UptA by recording spectra for solutions containing 2.5 µM UptA, 10 µM C55-P, and different concentrations of daptomycin.
(§3) Amphomycin and derivatives are known to kill bacteria by forming complexes with free C55-P ([46]), however, whether or not this involves a direct interaction with a protein cellular target is not known. We therefore investigated how amphomycin affects the UptA:C55-P complex. We recorded spectra for solutions containing 2.5 µM UptA, 10 µM C55-P and then equilibrated aliquots with increasing concentrations of amphomycin.
The amphiphilic nature of daptomycin and amphomycin raises the possibility that these lipopeptide antibiotics may promiscuously bind to UptA in a nonspecific manner. We probe this possibility by recording spectra for UptA:C55-P solutions in the presence of 100 µM polymyxin B and 100 µM polymyxin E. These polymyxins are membrane-disrupting lipopeptides that target the outer membrane lipopolysaccharides in Gram-negative bacteria ([47]) but without a known affinity for C55-P or UptA.
To this end, we prepared UptA:C55-P mixtures and then equilibrated aliquots with bacitracin and vancomycin.
as §1

UptA:C55-P complex = assay: Native MS of UptA:C55-P complex in the presence of antibiotics; format: binding, Bacillus subtilis; conditions: 2.5 µM UptA, 10 µM C55-P, 0 to 100 µM antibiotic, 75 V; mean of three independent replicates
Procedure: as §3
(A) Mass spectra (6+ charge state) for solutions containing 2.5 µM UptA and 10 µM C55-P incubated with 0 to 100 µM amphomycin. (B) Relative intensity of C55-P bound to UptA in the presence of amphomycin and daptomycin. The bar represents the mean of three independent replicates shown as data points and error bars are SD. […] (C) Fraction of C55-P bound to UptA in the presence of cell wall targeting antibiotics. Each sample contains 2.5 µM UptA, 10 µM C55-P and 100 µM of indicated antibiotic, and spectra were acquired using the same instrument settings and collisional activation of 75 V. The bar represents the mean of three independent replicates shown as data points, and the error bar represents SD. […]
as §1

[4] = cited from earlier work
From the text: To this end, we prepared UptA:C55-P mixtures and then equilibrated aliquots with bacitracin and vancomycin. […] Despite the combined cellular pool of C55-PP and C55-P being limited to ~1.5 × 10^5 molecules per cell ([56]), they mediate the transport of glycan-bearing components of the cell wall peptidoglycan, teichoic acid, and capsular polysaccharid ...

MurJ = conditions: read-out: Kd, MurJ/lipid II; cited from earlier work
Procedure: as §2

[5] = target: the molecule itself; assay: native MS; UptA 2.2 µM (E32A 2.5 µM, with 10 µM C55-P) in 200 mM ammonium acetate pH 8.0, 0.05% LDAO; dimer 9+ charge state isolated and dissociated into protomers by HCD (190 V); more dimer at pH 8.0 than at pH 5.0

CCCCCCCC/C=C\CCCCCCCC(=O)OC[C@H](COP(=O)(O)OCCN)OC(=O)CCCCCCC/C=C\CCCCCCCC [18:1-18:1 PE]
displacement of C55-P from UptA by phospholipid (in words) (UptA [1]): could not efficiently displace C55-P from UptA

CCCCCCCC/C=C\CCCCCCCC(=O)OC[C@H](COP(=O)(O)OCC(O)CO)OC(=O)CCCCCCC/C=C\CCCCCCCC (stereo partly drawn) [18:1-18:1 PG]
mean relative intensity of UptA in complex with phospholipid, comparison (in words) (UptA [2]; 4 µM UptA with 10 µM lipid (stated for a15:0-i15:0 lipids), mean of three independent replicates): bind to UptA more intensely than 16:0-18:1 PE and 18:1-18:1 PE, respectively | UptA-lipid complexes formed (stoichiometry, in words) (UptA [2]; 4 µM UptA with 10 µM lipid, native MS): binding of 1 to 2 molecules of DOPG per UptA | displacement of C55-P from UptA by phospholipid (in words) (UptA [1]): C55-P remains bound to UptA even in the presence of excess DOPG (20 µM)

CC(=O)N[C@H]1[C@@H](OP(=O)(O)OP(=O)(O)OC/C=C(/C)CC/C=C(/C)CC/C=C(/C)CC/C=C(/C)CC/C=C(/C)CC/C=C(/C)CC/C=C(/C)CC/C=C(\C)CC/C=C(\C)CC/C=C(\C)CCC=C(C)C)O[C@H](CO)[C@@H](O)[C@@H]1O[C@H](C)C(=O)N[C@@H](C)C(=O)N[C@H](CCC(=O)N[C@@H](CCCCN)C(=O)N[C@H](C)C(=O)N[C@H](C)C(=O)O)C(=O)O [lipid I]
Kd (MurG): 1890 ± 600 nM

bacitracin
binding of antibiotic to UptA (in words) (UptA [3]): bind to UptA but with very low intensities | effect of antibiotic on UptA:C55-P complex (in words) (UptA:C55-P complex): modestly competes against C55-P binding to UptA | complex formation with or sequestration of C55-PP (in words) [4]: form complex with C55-PP | complex formation with or sequestration of C55-PP (in words) ([4]; listed as Bacitracin): sequestration of C55-PP

lipid II
Kd (MurJ): 2900 ± 600 nM

teixobactin
complex formation with or sequestration of C55-PP (in words) [4]: form complex with C55-PP

B1: UptA (undecaprenyl phosphate transporter A), Bacillus subtilis, wild type (natural protein, UniProt O31823 1-198, looked up)
chain: MGSLISEILTWLTNMGYAGIAIGLMIEIIPSEIVLAYGGYMVSEGTIGFIGAIIAGVIGGTIAQIFIYWIGRYGGRPFLDKYGKYLLIKKHHIDMSENWFQKYGAGVVFSARFIPVVRHAISIPAGIARMPFLKFVVLTVLAIIPWSILFVYLGIQLGSQWDDVENIAGTYTTPIMILAVVVIALYFVIKKRTAIFKR
modifications: formylation of the N-terminal methionine
notes: UptA, DedA family membrane protein of Bacillus subtilis; detailed procedures are in SI Appendix; In equilibrium of monomers and dimers; also called WT; not shown: GFP, C-terminal, cleaved
stoichiometry N [5]: 2

Reference: PMC11474028, “Lipopeptide antibiotics disrupt interactions of undecaprenyl phosphate with UptA” (Proceedings of the National Academy of Sciences of the …, 2024)
